Tests used:
wild oat = test: Test C preemergence; type: in vivo, Avena fatua; details: for Oat, Wild plant response rating: preemergence, scale 0 (no effect) to 100 (complete control)
From the text: (§1) Seeds of plant species selected from blackgrass (Alopecurus myosuroides), Italian ryegrass (Lolium multiflorum), wheat, winter (winter wheat, Triticum aestivum), galium (catchweed bedstraw, Galium aparine), corn (Zea mays), large (Lg) crabgrass (Digitaria sanguinalis), giant foxtail (Setaria faberii), johnsongrass (Sorghum halepense), lambsquarters (Chenopodium album), morningglory (Ipomoea coccinea), yellow nutsedge (Cyperus esculentus), pigweed (Amaranthus retroflexus), ragweed (common ragweed, Ambrosia elatior), soybean (Glycine max), barnyardgrass (Echinochloa crus-galli), oilseed rape (Brassica napus), waterhemp (common waterhemp, Amaranthus rudis), kochia (Kochia scoparia), wild oat (Avena fatua), surinam grass (Brachiaria decumbens), foxtail, green (green foxtail, Setaria viridis), goosegrass (Eleusine indica), bromegrass, downy (downy bromegrass, Bromus tectorum), nightshade (eastern black nightshade, Solanum ptycanthum), cocklebur (common cocklebur, Xanthium strumarium), cupgrass, woolly (woolly cupgrass, Eriochloa villosa), bermudagrass (Cynodon dactylon), sunflower, (common oilseed sunflower, Helianthus annuus), Russian thistle (Salsola kali), and velvetleaf (Abutilon theophrasti) were planted into a blend of loam soil and sand and treated preemergence with test chemicals formulated in a non-phytotoxic solvent mixture which included a surfactant.
(§2) At the same time, plants selected from these crop and weed species and also barley, winter (winter barley, Hordeum vulgare), windgrass (Apera spica-venti), chickweed (common chickweed, Stellaria media), deadnettle (henbit deadnettle, Lamium amplexicaule), and canarygrass (littleseed canarygrass, Phalaris minor) were planted in pots containing Redi-Earth® planting medium (Scotts Company, 14111 Scottslawn Road, Marysville, Ohio 43041) comprising spaghnum peat moss, vermiculite, wetting agent and starter nutrients and treated with postemergence applications of test chemicals formulated in the same manner. Plants ranged in height from 2 to 18 cm (1- to 4-leaf stage) for postemergence treatments. Treated plants and controls were maintained in a greenhouse for 13 to 15 days, after which time all species were compared to controls and visually evaluated. Plant response ratings, summarized in Table C, are based on a scale of 0 to 100 where 0 is no effect and 100 is complete control. A dash (-) response means no test result.

foxtail, green = test: Test C preemergence; type: in vivo, Setaria viridis; details: for Foxtail, Green plant response rating: preemergence, scale 0 (no effect) to 100 (complete control)
From the text: as §1, §2

goosegrass [1] = test: Test C preemergence; type: in vivo, Eleusine indica; details: for Goosegrass plant response rating: preemergence, scale 0 (no effect) to 100 (complete control)
From the text: as §1, §2

bromegrass, downy = test: Test C preemergence; type: in vivo, Bromus tectorum; details: for Bromegrass, Downy plant response rating: preemergence, scale 0 (no effect) to 100 (complete control)
From the text: as §1, §2

cocklebur = test: Test C preemergence; type: in vivo, Xanthium strumarium; details: for Cocklebur plant response rating: preemergence, scale 0 (no effect) to 100 (complete control)
From the text: as §1, §2

cupgrass, woolly [2] = test: Test C preemergence; type: in vivo, Eriochloa villosa; details: for Cupgrass, Woolly plant response rating: preemergence, scale 0 (no effect) to 100 (complete control)
From the text: as §1, §2

bermudagrass [3] = test: Test C preemergence; type: in vivo, Cynodon dactylon; details: for Bermudagrass plant response rating: preemergence, scale 0 (no effect) to 100 (complete control)
From the text: as §1, §2

sunflower = test: Test C preemergence; type: in vivo, Helianthus annuus; details: for Sunflower plant response rating: preemergence, scale 0 (no effect) to 100 (complete control)
From the text: as §1, §2

goosegrass [4] = test: Test C postemergence; type: in vivo, Eleusine indica; details: for Plant response rating (0 to 100), Goosegrass: postemergence; for Plant response rating, Goosegrass: Postemergence, scale 0 to 100 (0 no effect, 100 complete control)
Outline: (§3)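 Rated visually on 0–100 (100 = complete control) after 13–15 days under glass. Treatments went onto freshly seeded loam/sand soil or onto emerged plants at the 1- to 4-leaf stage, using a surfactant-containing solvent formulation.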

cupgrass, woolly [5] = test: Test C postemergence; type: in vivo, Eriochloa villosa; details: for Plant response rating (0 to 100), Cupgrass, Woolly: postemergence; for Plant response rating, Cupgrass, Woolly: Postemergence, scale 0 to 100 (0 no effect, 100 complete control)
Outline: as §3

bermudagrass [6] = test: Test C postemergence; type: in vivo, Cynodon dactylon; details: for Plant response rating (0 to 100), Bermudagrass: postemergence; for Plant response rating, Bermudagrass: Postemergence, scale 0 to 100 (0 no effect, 100 complete control)
From the text: as §1, §2

palmer pigweed = test: Test E postemergence; type: in vivo, Amaranthus palmeri; details: post-emergence, read-out: Plant response rating, Pigweed, Palmer
From the text: (§4) Seeds of plant species selected from corn (Zea mays), soybean (Glycine max), velvetleaf (Abutilon theophrasti), lambsquarters (Chenopodium album), wild poinsettia (Euphorbia heterophylla), palmer pigweed (Amaranthus palmeri), waterhemp (common waterhemp, Amaranthus rudis), surinam grass (Brachiaria decumbens), large (Lg) crabgrass (Digitaria sanguinalis), Brazilian crabgrass (Digitaria horizontalis), fall panicum (Panicum dichotomiflorum), giant foxtail (Setaria faberii), green foxtail (Setaria viridis), goosegrass (Eleusine indica), johnsongrass (Sorghum halepense), ragweed (common ragweed, Ambrosia elatior), barnyardgrass (Echinochloa crus-galli), sandbur (southern sandbur, Cenchrus echinatus), arrowleaf sida (Sida rhombifolia), Italian ryegrass (Lolium multiflorum), dayflower (Virginia (VA) dayflower, Commelina virginica), field bindweed (Convolvulus arvensis), morningglory (Ipomoea coccinea), nightshade (eastern black nightshade, Solanum ptycanthum), kochia (Kochia scoparia), yellow nutsedge (Cyperus esculentus), cocklebur (common cocklebur, Xanthium strumarium), smartweed (ladysthumb smartweed, and hairy beggarticks (Bidens pilosa), were planted into a silt loam soil and treated preemergence with test chemicals formulated in a non-phytotoxic solvent mixture which included a surfactant.
(§5) At the same time, plants from these crop and weed species and also horseweed (Canada horseweed, Conyza canadensis), waterhemp_RES1, (ALS & Triazine resistant common waterhemp, Amaranthus rudis), and waterhemp_RES2, (ALS & HPPD resistant common waterhemp, Amaranthus rudis) were planted in pots containing Redi-Earth® planting medium (Scotts Company, 14111 Scottslawn Road, Marysville, Ohio 43041) comprising spaghnum peat moss, vermiculite, wetting agent and starter nutrients were treated with postemergence applications of test chemicals formulated in the same manner. Plants ranged in height from 2 to 18 cm for postemergence treatments (1- to 4-leaf stage). Treated plants and controls were maintained in a greenhouse for 14 to 21 days, after which time all species were compared to controls and visually evaluated. Plant response ratings, summarized in Table E, are based on a scale of 0 to 100 where 0 is no effect and 100 is complete control. A dash (-) response means no test result.

smartweed = test: Test E postemergence; type: in vivo, ladysthumb smartweed
From the text: as §4, §5

[7] = Preemergence, 31 g ai/ha, scale 0 to 100, 0 no effect, 100 complete control
[8] = Postemergence, 31 g ai/ha, scale 0 to 100
[9] = Postemergence, 62 g ai/ha, scale 0 to 100
[10] = Postemergence, 125 g ai/ha, scale 0 to 100
[11] = postemergence, 8 g ai/ha, scale 0 to 100, 0 no effect, 100 complete control
[12] = postemergence, 16 g ai/ha, scale 0 to 100, 0 no effect, 100 complete control

## Clc1cnc(Oc2ccccc2-n2cc(Br)cn2)nc1 [Compound 7, 2-[2-(4-bromo-1H-pyrazol-1-yl)phenoxy]-5-chloropyrimidine]
Wild oat; 62 g ai/ha
  Oat, Wild plant response rating: 5
Wild oat; 125 g ai/ha
  Oat, Wild plant response rating: 50
Wild oat; 250 g ai/ha
  Oat, Wild plant response rating: 80
Wild oat; [7]
  Plant response rating, Oat, Wild: 0
foxtail, green; 62 g ai/ha
  Foxtail, Green plant response rating: 90
foxtail, green; 125 g ai/ha
  Foxtail, Green plant response rating: 90
foxtail, green; 250 g ai/ha
  Foxtail, Green plant response rating: 95
foxtail, green; [7]
  Plant response rating, Foxtail, Green: 50
Goosegrass [1]; 62 g ai/ha
  Goosegrass plant response rating: 85
Goosegrass [1]; 125 g ai/ha
  Goosegrass plant response rating: 95
Goosegrass [1]; 250 g ai/ha
  Goosegrass plant response rating: 100
Goosegrass [1]; [7]
  Plant response rating, Goosegrass: 65
bromegrass, downy; 62 g ai/ha
  Bromegrass, Downy plant response rating: 5
bromegrass, downy; 125 g ai/ha
  Bromegrass, Downy plant response rating: 45
bromegrass, downy; 250 g ai/ha
  Bromegrass, Downy plant response rating: 75
bromegrass, downy; [7]
  Plant response rating, Bromegrass, Downy: 0
cocklebur; 62 g ai/ha
  Cocklebur plant response rating: 5
cocklebur; 125 g ai/ha
  Cocklebur plant response rating: 5
cocklebur; 250 g ai/ha
  Cocklebur plant response rating: 5
cocklebur; [7]
  Plant response rating, Cocklebur: 0
cupgrass, woolly [2]; 62 g ai/ha
  Cupgrass, Woolly plant response rating: 55
cupgrass, woolly [2]; 125 g ai/ha
  Cupgrass, Woolly plant response rating: 98
cupgrass, woolly [2]; 250 g ai/ha
  Cupgrass, Woolly plant response rating: 98
cupgrass, woolly [2]; [7]
  Plant response rating, Cupgrass, Woolly: 15
Bermudagrass [3]; 62 g ai/ha
  Bermudagrass plant response rating: 100
Bermudagrass [3]; 125 g ai/ha
  Bermudagrass plant response rating: 100
Bermudagrass [3]; 250 g ai/ha
  Bermudagrass plant response rating: 100
Bermudagrass [3]; [7]
  Plant response rating, Bermudagrass: 85
sunflower; 62 g ai/ha
  Sunflower plant response rating: 10
sunflower; 125 g ai/ha
  Sunflower plant response rating: 10
sunflower; 250 g ai/ha
  Sunflower plant response rating: 10
sunflower; [7]
  Plant response rating, Sunflower: 0
Goosegrass [4]; 125 g ai/ha
  Plant response rating (0 to 100), Goosegrass: 15
Goosegrass [4]; 250 g ai/ha
  Plant response rating (0 to 100), Goosegrass: 15
Goosegrass [4]; 31 g ai/ha, 13 to 15 days
  Plant response rating, Goosegrass: 0
Goosegrass [4]; 62 g ai/ha
  Plant response rating, Goosegrass: 5
cupgrass, woolly [5]; 125 g ai/ha
  Plant response rating (0 to 100), Cupgrass, Woolly: 25
cupgrass, woolly [5]; 250 g ai/ha
  Plant response rating (0 to 100), Cupgrass, Woolly: 25
cupgrass, woolly [5]; 31 g ai/ha, 13 to 15 days
  Plant response rating, Cupgrass, Woolly: 10
cupgrass, woolly [5]; 62 g ai/ha
  Plant response rating, Cupgrass, Woolly: 20
Bermudagrass [6]; 125 g ai/ha
  Plant response rating (0 to 100), Bermudagrass: 15
Bermudagrass [6]; 250 g ai/ha
  Plant response rating (0 to 100), Bermudagrass: 70
Bermudagrass [6]; 31 g ai/ha, 13 to 15 days
  Plant response rating, Bermudagrass: 0
Bermudagrass [6]; 62 g ai/ha
  Plant response rating, Bermudagrass: 5
Palmer pigweed; [8]
  pest or weed control at 31 g/ha: 50%
Palmer pigweed; [9]
  pest or weed control at 62 g/ha: 75%
Palmer pigweed; [10]
  pest or weed control at 125 g/ha: 85%
Palmer pigweed; [11]
  pest or weed control at 8 g/ha: 40%
Palmer pigweed; [12]
  pest or weed control at 16 g/ha: 60%
smartweed; [8]
  Plant response rating, Smartweed: 40
smartweed; [9]
  Plant response rating, Smartweed: 70
smartweed; [10]
  Plant response rating, Smartweed: 100
smartweed; [11]
  Plant response rating, Smartweed: 15
smartweed; [12]
  Plant response rating, Smartweed: 30
